In patent publication US20010018051A1, “Inhibition of allograft and concordant xenograft rejection” (priority 1990, published 2001):

Legend:
rabbit kidney xenografts = details: rabbit kidney into cats; cited from earlier work
[1] = format: in vivo; details: doses of 2 mg/kg
Source text: (§1) The minimum dosage of cobra venom factor is species dependent and can readily be determined by the CH50 assay. […] Effective and non-toxic dosages of other complement inhibitors can also readily be determined by those skilled in the art, for example, using the CH50 assay.

hamster heart xenograft = hamster heart xenograft survival in rats; format: in vivo, rat; details: hamster heart in DA rats; i.m. on alternate days from time of transplantation (cyclosporin A 20 mg/kg, cobra venom factor 0.4 mg/kg)
Source text: All other cardiac vessels were ligated.
Injections were given on alternate days thereafter.

complement activity = experiment: onset and duration of cobra venom factor activity after intramuscular administration; format: in vivo
Description: as §1
Cobra venom factor takes about 6 hours for its initial activity to take effect after intramuscular administration. Once the initial activity is observed, it can last for more than 1 day, for example 2 days, and so daily administration of cobra venom factor may not be necessary. In fact, it is preferred to administer cobra venom factor on alternate days, in which case the preferred daily dosages given above will be doubled on the day of administration.

Question: With `C[C@H](CS)C(=O)N1CCC[C@H]1C(=O)O` [captopril] as the compound, how does the “prevention of hyperacute rejection” value (rabbit kidney xenografts) read?
Answer: not prevented

Question: Which “prevention of hyperacute rejection” value (rabbit kidney xenografts) does the source give for `CCOC(=O)[C@H](CCc1ccccc1)N[C@@H](C)C(=O)N1CCC[C@H]1C(=O)O` [enalapril] here?
Answer: not prevented

Question: With `CCCCC[C@H](O)/C=C/[C@@H]1[C@H]2C/C(=C/CCCC(=O)O)O[C@H]2C[C@H]1O` [prostacyclin] as the compound, how does the “prevention of hyperacute rejection” value (rabbit kidney xenografts) read?
Answer: not prevented

Question: With `O=C(O)c1cc(=O)c2c(OCC(O)COc3cccc4oc(C(=O)O)cc(=O)c34)cccc2o1` [sodium chromoglycate] as the compound, how does the “prevention of hyperacute rejection” value (rabbit kidney xenografts) read?
Answer: not prevented

Question: For cobra venom factor, which “prolongation in graft survival” value (rabbit kidney xenografts) is on record?
Answer: up to seven days

Question: What about the toxicity [1] of the same compound?
Answer: do not appear to be toxic

Question: And the “median graft survival rate” value (hamster heart xenograft)?
Answer: 6 days

Question: What about the “duration of activity once observed” value (complement activity) of the same compound?
Answer: more than 1 day

Question: What about the “time for initial activity to take effect” value (complement activity) of the same compound?
Answer: about 6 hours
